Patent US20100120810A1, “COMPOUNDS AND METHODS FOR MODULATING RHO GTPASES” (priority 2007, published 2010)
Where two headings read alike, the source gives them in different places.

Experiments:
[1] = target: T1, Rac1 activated by DH/PH domain of Guanine nucleotide Exchange Factor Tiam1 (Rac1/Tiam1) (Homo sapiens, UniProt P63000); assay: Nucleotide binding assay: BODIPY-GTP binding to Rac1 activated by Tiam1 DH/PH; type: biochemical; details: for inhibition at 50 µM: read-out: Rac1 % inhibition of BODIPY-GTP binding
T1 construct: made in house; host or cells: E. coli BL21 Codon+RIL
Description: (§1) Fluorescence of GTP analog BODIPY-GTP increases when it binds to small G proteins. This property was used to assess ability of compounds to inhibit nucleotide binding to Rac1, Rac1b and Cdc42. 2 μM GST-Rac1 and 6 μg His6-Tiam1-DH/PH were diluted in a buffer containing 20 mM Tris, 50 mM NaCl, and 1 mM MgCl2. This mixture was loaded in a 96-well plate. Fluorescence recording were started (λEx: 485 nm; λEm: 538 nm) using a spectrofluorimeter (Fluoroskan; Thermolab Systems). Assay was initiated by the addition of 2 μM BODIPY-GTP with or without various doses of test compound. Fluorescence values were recorded, and data were processed as follows: background fluorescence (unbound BODIPY-GTP) was retrieved from fluorescence values.
(§2) This assay allows determining whether compounds can inhibit the binding of a fluorescent nucleotide to recombinant small G proteins of interest. The effect of various alkaloid compounds on binding of BODIPY-GTP to Rac1 activated by DH/PH domain of Guanine nucleotide Exchange Factor Tiam1 (Rac1/Tiam1), Rac1b and Cdc42 is described below.

Rac1b = target: T2, Rac1b (Homo sapiens, UniProt P63000); assay: Nucleotide binding assay: BODIPY-GTP binding to Rac1b; type: biochemical; details: for inhibition at 50 µM: read-out: Rac1b % inhibition of BODIPY-GTP binding
T2 construct: GST (N); made in house; host or cells: E. coli BL21 Codon+RIL
Description: as §1, §2

Cdc42 = target: T3, Cdc42 (Homo sapiens, UniProt P60953); assay: Nucleotide binding assay: BODIPY-GTP binding to Cdc42; type: biochemical; details: for inhibition at 50 µM: read-out: Cdc42 % inhibition of BODIPY-GTP binding
T3 construct: GST (N); made in house; host or cells: E. coli BL21 Codon+RIL
Description: as §1, §2

HCT116 cell line = assay: Soft agar assay (anchorage-independent colony formation); type: cell-based; details: HCT116, 7 days
From the text: Colony formation in soft agar is the most widely used assay to evaluate anchorage-independent growth potential and represents one of the best in vitro assays that correlates strongly with in vivo tumorigenic cell growth potential. Normal cells require adherence and spreading onto a solid substratum in order to remain viable and proliferate. In contrast, cancer cell line HCT116 (ATCC clone number CCL-247) lost this requirement and therefore can form proliferating colonies of cells when suspended in a semisolid agar medium. The assay was performed in 24-well plates, using duplicates wells for each compound concentration. Briefly, a 0.5% Bacto™ Agar (BD Biosciences) bottom layer (prepared in HCT116 complete growth medium supplemented or not with the tested compound) was poured first and allowed to harden (0.3 ml per well). HCT116 were trypsinized to generate a uniform single cell suspension. Five×10^3 cells per well were resuspended in 0.3% agar supplemented with complete growth medium, with or without several compound concentrations to form the top layer (0.3 ml per well). HCT116 were allowed to grow for 7 days in these conditions and then analysed for colonies formation. Analysis was performed from pictures taken under a microscope that are representative from 2 different fields of the well. For each field, 2 different focal plans were taken and were merged using ImageJ software. The number of colonies were scored and colonies' size were measured. IC50 were determined for the number and size of colonies using GraphPad Prism (GraphPad) software. Data are mean values of 2 to 3 independent experiments.

NIH3T3 and PC-3 cells = details: cited from earlier work
RhoA = RhoA (Homo sapiens, UniProt P61586); details: cited from earlier work
[2] = target: T4, HEK293 cells overexpressing human Rac1b (Homo sapiens, UniProt P63000); assay: Rac1b activation assay (G-LISA); type: cell-based; details: HEK293, read-out: G-LISA % inhibition @ 50 μM
T4 construct: expressed in transfected cells; host or cells: HEK293
Description: Rac1b activation assay: HEK293 cells overexpressing human Rac1b were plated in 100 mm diameter dishes and grown for 5 days in MEM medium supplemented with 10% FBS, L-Glutamine and antibiotics. Cells were then treated with 50 μM of compounds or the solvent for 5 minutes, and the GTP loading of Rac1b was measured using a Rac Activation Assay Kit (Cytoskeleton) according to manufacturer's recommendations. Briefly, this assay uses a 96-well plate coated with RBD domain of Rho-family effector proteins. […] The signal is then developed with OPD reagent.

protein kinase C (PKC) = details: cited from earlier work

T3 sequence (P60953 whole entry, species assumed): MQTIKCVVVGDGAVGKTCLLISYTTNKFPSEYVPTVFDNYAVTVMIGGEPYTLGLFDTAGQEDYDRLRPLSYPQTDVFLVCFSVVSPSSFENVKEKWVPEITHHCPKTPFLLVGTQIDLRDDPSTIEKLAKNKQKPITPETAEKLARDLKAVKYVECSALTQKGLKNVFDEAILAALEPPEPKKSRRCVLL
RhoA, sequence (P61586 whole entry, species assumed): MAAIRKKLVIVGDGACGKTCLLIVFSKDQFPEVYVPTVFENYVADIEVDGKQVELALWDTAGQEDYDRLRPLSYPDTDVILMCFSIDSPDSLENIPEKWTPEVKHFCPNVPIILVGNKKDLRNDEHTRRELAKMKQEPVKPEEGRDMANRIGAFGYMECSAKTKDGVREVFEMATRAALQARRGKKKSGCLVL

Cl.Oc1cc2c(cc1O)CN(Cc1cccc(O)c1O)CC2 [Compound 19, 2-(2,3-Dihydroxybenzyl)-6,7-dihydroxy-1,2,3,4-tetrahydroisoquinolinium chloride]
inhibition at 50 µM ([1]; final concentration of 50 μM, Rac1/Tiam1): 9 ± 2% | inhibition at 50 µM (Rac1b; final concentration of 50 μM): 19 ± 3% | inhibition at 50 µM (Cdc42; final concentration of 50 μM): 17 ± 3% | melting point: 178.8 °C

CCN(CC)CCCC(C)Nc1nc(C)cc(Nc2ccc3nc(C)cc(N)c3c2)n1 (stereo not drawn) [NSC 23766, reference compound]
IC50 (HCT116 cell line; read-out: Soft agar assay IC50, Clone Number): 64.2 ± 4.8 µM | IC50 (HCT116 cell line; read-out: Soft agar assay IC50, Clone Size): 27.9 ± 5 µM | effective dose, Rac1-mediated cellular functions (NIH3T3 and PC-3 cells): 50 to 100 µM | effect on RhoA activation (RhoA): no effect

C[n+]1cc2c3c(ccc2c2ccc4cc5c(cc4c21)OCO5)OCO3.O.[Cl-] [Compound 13, 13-methyl-[1,3]benzodioxolo[5,6-c]-1,3-dioxolo[4,5-i]phenanthridinium chloride hydrate, reference compound]
IC50 ([1]; dose-response study): 57.8 ± 4.3 µM | inhibition at 50 µM [1]: 45 ± 4% | IC50 (Rac1b; dose-response study): 4.6 ± 0.4 µM | fold more active on Rac1b than on Rac1/Tiam1 (Rac1b; from IC50s): 13 fold | times more active on Rac1b than on Cdc42 (Rac1b; from IC50s): 6 times | inhibition at 50 µM (Rac1b): 100% | selectivity for Rac1b (Rac1b; versus Rac1 or Cdc42): some significant selectivity for Rac1b | IC50 (Cdc42; dose-response study): 32.1 ± 0.7 µM | inhibition at 50 µM (Cdc42): 63 ± 2% | inhibition at 50 µM [2]: 50 ± 3% | IC50 (HCT116 cell line; Homo sapiens, HCT-116, 168 h, read-out: Soft agar assay IC50, Clone Number): 1.9 ± 0.6 µM | IC50 (HCT116 cell line; Homo sapiens, HCT-116, 168 h, read-out: Soft agar assay IC50, Clone Size): 1.5 ± 0.2 µM | activity against PKC (protein kinase C (PKC)): 217 μm
